In US12679840B2, “Process for the preparation of (9S)-N-[3-(6-methylpyrimidin-4-yl)-3-azabicyclo[3.2.1]octan-8-yl]-9-(2,3,4-trifluorophenyl)-6,7,8,9-tetrahydro-5H-[1,2,4]triazolo[1,5-a]azepin-2-amine and its solid form” (Hoffmann-La Roche Inc., priority 2020, dated 2026):
In brackets after ≈: the same amount, converted by molar mass. Several values for one entry are separate records, joined by “and”; a condition that tells them apart may be missing. Equal entries are not always repeated.

Assay: Solubility study of Form A in buffers, water and biorelevant media (suspension shaken 24 hours at 25° C., filtrate by UPLC)
Format: physicochemical
Conditions: for solubility at 24 h: thermodynamic from solid
Method: • pH 1.00 buffer • pH 3.00 buffer • pH 5.00 buffer • pH 7.00 buffer • pH 9.00 buffer • Water • SGF without Triton • FaSSIF • FeSSIF b. Testing Procedure
Weigh about 5 mg of compound (I) into glass vial and add 0.5 ml testing medium listed above to form suspension. Shake these suspensions at 1200 rpm for about 24 hours under 25° C.
At the end of 24 hours, pull out all the vials and filter the suspensions by 0.22 μm PVDF filters. Check the pH value and concentration of filtrate by pH meter and UPLC respectively.
The result indicates the solubility is pH dependent.

In the case of `Cc1cc(N2CC3CCC(C2)C3Nc2nc3n(n2)CCCC[C@H]3c2ccc(F)c(F)c2F)ncn1` (stereo partly drawn) [Form A, (9S)-N-[3-(6-methylpyrimidin-4-yl)-3-azabicyclo[3.2.1]octan-8-yl]-9-(2,3,4-trifluorophenyl)-6,7,8,9-tetrahydro-5H-[1,2,4]triazolo[1,5-a]azepin-2-amine], the solubility at 24 h (FaSSIF, 25 °C, about 24 hours, individual replicate) is reported as 34 µg/mL (≈ 70.3 µM), the solubility at 24 h (FaSSIF, 25 °C, about 24 hours, mean ± spread of three replicates) is reported as 33 µg/mL (≈ 68.2 µM) and the Solubility (FaSSIF, about 24 hours, individual replicate) is reported as 33 µg/mL (≈ 68.2 µM). For the same compound, the solubility at 24 h (FeSSIF, 25 °C, about 24 hours, individual replicate) was 614 µg/mL (≈ 1270 µM), the solubility at 24 h (FeSSIF, 25 °C, about 24 hours, mean ± spread of three replicates) was 618 ± 7 µg/mL (≈ 1280 µM) and the Solubility (FeSSIF, about 24 hours, individual replicate) was 611 µg/mL and 628 µg/mL. For the same compound, the solubility at 24 h (SGF without Triton-X100, 25 °C, simulated gastric fluid, SGF without Triton-X100, about 24 hours, individual replicate) was > 10000 µg/mL, the solubility at 24 h (SGF without Triton-X100, 25 °C, simulated gastric fluid, SGF without Triton-X100, about 24 hours, mean of three replicates) was > 10000 µg/mL and the Solubility (Water, about 24 hours, individual replicate) was 6 µg/mL (≈ 12.4 µM). For the same compound, the solubility at 24 h (pH 1.0 buffer, 25 °C, pH 1, aqueous buffer, about 24 hours, individual replicate) was > 10000 µg/mL, the solubility at 24 h (pH 1.0 buffer, 25 °C, pH 1, aqueous buffer, about 24 hours, mean of three replicates) was > 10000 µg/mL and the solubility at 24 h (pH 3.0 buffer, 25 °C, pH 3, aqueous buffer, about 24 hours, individual replicate) was 5480 µg/mL (≈ 11300 µM). For the same compound, the solubility at 24 h (pH 3.0 buffer, 25 °C, pH 3, aqueous buffer, about 24 hours, mean ± spread of three replicates) was 5347 ± 47 µg/mL (≈ 11100 µM), the Solubility (pH 3.0 buffer, about 24 hours, individual replicate) was 5366 µg/mL and 5468 µg/mL and the solubility at 24 h (pH 5.0 buffer, 25 °C, pH 5, aqueous buffer, about 24 hours, individual replicate) was 91 µg/mL (≈ 188 µM). The solubility at 24 h (pH 5.0 buffer, 25 °C, pH 5, aqueous buffer, about 24 hours, mean ± spread of three replicates) was 101 ± 9 µg/mL (≈ 209 µM), the Solubility (pH 5.0 buffer, about 24 hours, individual replicate) was 97 µg/mL and 114 µg/mL and the solubility at 24 h (pH 7.0 buffer, 25 °C, pH 7, aqueous buffer, about 24 hours, individual replicate) was 7 µg/mL (≈ 14.5 µM). For the same compound, the solubility at 24 h (pH 7.0 buffer, 25 °C, pH 7, aqueous buffer, about 24 hours, mean ± spread of three replicates) was 6 µg/mL (≈ 12.4 µM), the Solubility (pH 7.0 buffer, about 24 hours, individual replicate) was 6 µg/mL (≈ 12.4 µM) and the solubility at 24 h (pH 9.0 buffer, 25 °C, pH 9, aqueous buffer, about 24 hours, individual replicate) was 6 µg/mL (≈ 12.4 µM). It also gave a solubility at 24 h (pH 9.0 buffer, 25 °C, pH 9, aqueous buffer, about 24 hours, mean ± spread of three replicates) of 6 µg/mL (≈ 12.4 µM), a solubility at 24 h (water, 25 °C, about 24 hours, individual replicate) of 7 µg/mL (≈ 14.5 µM) and a solubility at 24 h (water, 25 °C, about 24 hours, mean ± spread of three replicates) of 6 µg/mL (≈ 12.4 µM).
